{"source": "patent US9434686B2", "about": "“Deacetylase inhibitors and uses thereof” (President and Fellows of Harvard College, priority 2008, dated 2016)", "key": {"HDAC6 [1]": {"target": "T1, HDAC6 (Homo sapiens, UniProt Q9UBN7)", "T1 construct": "endogenous in cells", "T1 sequence (Q9UBN7 1-1215)": "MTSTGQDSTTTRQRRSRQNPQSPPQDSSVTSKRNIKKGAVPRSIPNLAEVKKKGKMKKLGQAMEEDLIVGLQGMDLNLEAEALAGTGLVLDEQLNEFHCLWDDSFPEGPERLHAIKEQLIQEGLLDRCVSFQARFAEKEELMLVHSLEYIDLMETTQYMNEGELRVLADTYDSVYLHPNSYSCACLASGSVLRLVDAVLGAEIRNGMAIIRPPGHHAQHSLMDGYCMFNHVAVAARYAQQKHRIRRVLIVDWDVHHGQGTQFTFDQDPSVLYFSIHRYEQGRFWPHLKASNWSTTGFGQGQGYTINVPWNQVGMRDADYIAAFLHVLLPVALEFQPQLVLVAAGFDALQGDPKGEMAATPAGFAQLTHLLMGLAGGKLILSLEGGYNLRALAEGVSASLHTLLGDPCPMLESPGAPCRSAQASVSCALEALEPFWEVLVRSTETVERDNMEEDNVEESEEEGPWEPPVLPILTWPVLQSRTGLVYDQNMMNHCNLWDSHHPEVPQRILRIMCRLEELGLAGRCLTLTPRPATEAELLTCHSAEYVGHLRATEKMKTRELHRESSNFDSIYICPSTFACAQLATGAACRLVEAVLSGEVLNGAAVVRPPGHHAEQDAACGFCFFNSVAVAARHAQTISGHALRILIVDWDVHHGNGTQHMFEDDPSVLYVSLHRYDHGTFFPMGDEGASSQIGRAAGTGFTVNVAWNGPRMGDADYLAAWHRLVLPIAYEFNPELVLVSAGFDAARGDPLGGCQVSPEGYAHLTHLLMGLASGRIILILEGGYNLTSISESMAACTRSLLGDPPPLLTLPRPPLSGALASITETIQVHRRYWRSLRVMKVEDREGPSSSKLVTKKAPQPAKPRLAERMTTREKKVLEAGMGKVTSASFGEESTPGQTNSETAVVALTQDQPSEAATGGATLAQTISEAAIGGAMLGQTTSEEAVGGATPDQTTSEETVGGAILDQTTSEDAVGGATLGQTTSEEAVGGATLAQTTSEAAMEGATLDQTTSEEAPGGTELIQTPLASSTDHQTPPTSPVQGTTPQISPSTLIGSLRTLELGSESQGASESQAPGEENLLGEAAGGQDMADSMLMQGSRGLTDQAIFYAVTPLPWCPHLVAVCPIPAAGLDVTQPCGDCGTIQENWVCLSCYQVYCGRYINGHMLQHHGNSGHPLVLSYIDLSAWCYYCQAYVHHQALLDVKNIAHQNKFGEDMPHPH", "assay": "High content acetylation assay (AcTubulin vs AcHistone) in cultured cells", "type": "cell-based", "conditions": "dose-range, TDAC activity as surrogate for HDAC6 inhibition", "experimental": "FIG. 2. High-throughput, high-content, quantitative detection method for identifying HDAC inhibitors. Cells are seeded in 384-well plates (2,000 cells/well) and treated with test compound, fixed, and then stained with Hoechst (nuclei), primary anti-AcTubulin monoclonal antibody and anti-AcHistone polyclonal antibody, then with compatible fluorophore-conjugated secondary antibodies. After automated image acquisition a custom analysis script identifies and masks cells, then derives quantitative fluorescence data from FITC (AcTubulin) and rhodamine (AcHistone) channels (MetaXPress; Molecular Devices).\nFIG. 3. WT-161 Induction of AcTubulin (Red) and AcHistone (Blue) by HCS. As described in FIG. 2, the high content acetylation assay was employed to determine the comparative induction of acetylated histones versus acetylated tubulin across a dose-range of WT-161.\nFIG. 4. […] Dose-response data from FIG. 3 have been used to generate EC50 values of cellular histone and tubulin acetylation effects of WT-161. […] HDAC activity is used to indicate biological activity of proteins mediating histone deacetylation, as this is a cellular assay measuring global effects on acetylation. TDAC activity is a surrogate measurement for HDAC6 inhibition in cultured cells."}, "HDAC6 [2]": {"target": "T1, HDAC6", "assay": "HDAC biochemical (homogeneous) assay, inhibitory constants", "experimental": "FIG. 5. HDAC Biochemical Assay Schema. 7-amino-4-methylcoumarin (7AMC) is linked by an amide bond to acetylated lysine in the context of an isoform-selective substate. Pictured here is a derived substrate for HDACs 1, 2, 3, and 6. HDAC hydrolyzes acetylated lysine, which is then a substrate for rapid trypsin digestion releasing 7AMC (shown in green) which is detected in real time by a fluorescence plate reader. Linear data captured after a pre-incubation phase (30 minutes) provides a kinetic assessment of deacetylase activity.\nFIG. 6. […] Robust assay for HDACs 1, 2, 3, 5, 6, and 8 have been established."}, "[3]": {"test_system": "human multiple myeloma cells", "assay": "Cell proliferation (Cell TiterGlo) synergy of HDAC inhibitor with bortezomib", "type": "cell-based", "conditions": "two cultures of human multiple myeloma cells, bortezomib 0, 2.5 nM, 5.0 nM", "experimental": "FIG. 7. […] Synergistic effects on cell proliferation were determined by varying concentrations of each HDAC inhibitor in the presence of varied concentrations of the proteasome inhibitor, bortezomib. Two cultures of human multiple myeloma cells were used for this study. Data presented are the IC50 data for the HDAC inhibitor studied (first column) in the presence of increasing concentrations of bortezomib (0, 2.5 nM, or 5.0 nM). The measurement of cell proliferation used is the Cell TiterGlo assay (Promega), which uses bioluminescence to report on ATP content in cultured cells."}}}
{"smiles": "O=C(CCCCCCC(=O)N/N=C/c1ccc(N(c2ccccc2)c2ccccc2)cc1)NO", "note": "[WT-161]", "values": [{"measurement": "Comparative induction of acetylated tubulin versus acetylated histones (cellular selectivity)", "setting": "HDAC6 [1]", "result": "Selective Inhibition of HDAC6"}, {"measurement": "Inhibitory constant (Ki) for HDAC6, in words", "setting": "HDAC6 [2]", "result": "Potent inhibition of HDAC6"}, {"measurement": "Selectivity among HDACs 1, 2, 3, 5, 6, 8, in words", "setting": "HDAC6 [2]", "result": "Selective Inhibition of HDAC6"}, {"measurement": "Synergy with bortezomib on cell proliferation", "setting": "[3]", "result": "most pronounced synergy"}]}
